Experimental data as given in patent publication US11413278B2, “Compounds and methods for promoting stress resistance” (priority 2015, dated 2022).
Like-named read-outs stand apart in the source and are kept apart here.

Tests used:
FOXO3 = FOXO3 siRNA knockdown: dependency for H2O2-resistance; type: cell-based, human; conditions: for FOXO3-dependency for H2O2-resistance (experiment 3): with & without H2O2, FOXO3 knockdown in WI-38 cells
[1] = system: human dermal fibroblast (HDF) primary cells; test: H2O2-resistance in primary human dermal fibroblasts; type: cell-based; conditions: for fold induction at 10 µM: Homo sapiens; for Assay 6: H2O2-resistant, at 10 uM, human dermal fibroblast (HDF) primary cells: YES/NO
NRF2 = test: in vitro; type: cell-based, human; conditions: for NRF2-dependency for H2O2-resistance, at 10 uM - with H2O2, 2nd experiment: experiment 2 (2nd); for NRF2-dependency for H2O2-resistance (experiment 3): with & without H2O2, NRF2 knockdown in WI-38 cells; for NRF2-dependency for H2O2-resistance (experiment 3) / NRF2-dependency for H2O2-resistance, 2nd experiment / NRF2-dependency for H2O2-resistance, 1st experiment: YES = resistance reduced by at least 50%, partial = 25% to 50%; for NRF2-dependency for H2O2-resistance, 2nd experiment / NRF2-dependency for H2O2-resistance, 1st experiment: with H2O2, NRF2 knockdown in WI-38 cells; for Assay 17: NRF2-dependency for H2O2-resistance: YES/NO; for NRF2-dependency of H2O2-resistance (NRF2 siRNA knockdown): at least 2 of 3 independent experiments; for NRF2-dependency for H2O2-resistance, at 10 uM - with H2O2, 1st experiment: experiment 1 (1st)
WI-38 cells = test: CdCl2 (cadmium) resistance assay; type: cell-based, human; conditions: for fold induction at 10 µM: Homo sapiens, 12 h, normalized ATP measurement; for Assay 4: H2O2- & Cd-resistant / Assay 2: Cadmium-resistant: YES/NO; for Assay 2: Cadmium-resistant: * indicates partial
Method in brief: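 Resistance to CdCl2 or MMS stress (12 h exposure) was scored in WI-38 fibroblasts pretreated with compound at 0.25–20 μM final, five doses, technical triplicates. MMS plates had compound added 24 h before MMS, after a shift to serum-free DMEM+2% BSA. Significance came from a global variance t-test over two independent runs.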

[2] = 10 uM, YES = resistance reduced by at least 50%, partial = 25% to 50%
[3] = Experiment 1, HDF cells, read-out: Experiment 1, HDF cells (under H2O2 stress treatment), at 10 uM (fold change)
[4] = Experiment 2, HDF cells, read-out: Experiment 2, HDF cells (under H2O2 stress treatment), at 10 uM (fold change)
[5] = Exp. 1, WI-38 cells, read-out: Exp. 1, under Cd2Cl2 stress treatment, at 10 uM (fold change)
[6] = Exp. 2, WI-38 cells, read-out: Exp. 2, under Cd2Cl2 stress treatment, at 10 uM (fold change)
[7] = score in summary of 38 core set hits
[8] = WI-38 cells, 10 μM, both stressors

## Cc1cc(C)c(C(=O)/C=C/c2ccccc2F)c(O)n1 [O18]
FOXO3; 10 uM
  FOXO3-dependency for H2O2-resistance, at 10 uM (experiment 3) - with & without H2O2: YES
FOXO3; [2]
  FOXO3-dependency for H2O2-resistance (experiment 3): YES
FOXO3; score
  I = FOXO3-dependency for H2O2-resistance: 0
FOXO3; summary score
  I = FOXO3-dependency for H2O2-resistance: 0
[1]; [3]
  fold induction at 10 µM: 72.5
[1]; [4]
  fold induction at 10 µM: 1.27
NRF2; 10 uM
  NRF2-dependency for H2O2-resistance, at 10 uM - with H2O2, 2nd experiment: 2nd, partial.
  NRF2-dependency for H2O2-resistance, at 10 uM (experiment 3) - with & without H2O2: YES
  NRF2-dependency for H2O2-resistance (experiment 3): YES
  NRF2-dependency for H2O2-resistance, 2nd experiment: partial.
  Assay 17: NRF2-dependency for H2O2-resistance: YES
NRF2
  NRF2-dependency of H2O2-resistance (NRF2 siRNA knockdown): significantly attenuate
NRF2; score
  J = NRF2-dependency for H2O2-resistance: 1
NRF2; summary score
  J = NRF2-dependency for H2O2-resistance: 1
WI-38 cells; [5]
  fold induction at 10 µM: 1.5
WI-38 cells; [6]
  fold induction at 10 µM: 1.24
WI-38 cells
  Assay 4: H2O2- & Cd-resistant: YES
  Assay 2: Cadmium-resistant: YES
WI-38 cells; [7]
  A = Cadmium resistant: 0
WI-38 cells; summary score
  A = Cadmium resistant: 1
  C = H2O2- & Cd-resistant: 1

## COC(=O)CCc1sc2c(c1[N+](=O)[O-])NC(=O)CCC2 [O20]
FOXO3; 10 uM, experiment 2 (2nd), with H2O2
  FOXO3-dependency for H2O2-resistance, at 10 uM - with H2O2, 2nd experiment: 2nd, YES.
FOXO3; 10 uM
  FOXO3-dependency for H2O2-resistance, at 10 uM (experiment 3) - with & without H2O2: YES
FOXO3; [2]
  FOXO3-dependency for H2O2-resistance (experiment 3): YES
FOXO3; 10 uM, with H2O2, FOXO3 knockdown in WI-38 cells, YES = resistance reduced by at least 50%, partial = 25% to 50%
  FOXO3-dependency for H2O2-resistance, 2nd experiment: YES.
FOXO3; 10 uM, YES/NO
  Assay 16: FOXO3-dependency for H2O2-resistance: YES
FOXO3; FOXO3 siRNA, at least 2 of 3 independent experiments
  Requirement of FOXO3 to promote H2O2-resistance: required FOXO3
FOXO3; score
  I = FOXO3-dependency for H2O2-resistance: 1
FOXO3; summary score
  I = FOXO3-dependency for H2O2-resistance: 1
[1]; [3]
  fold induction at 10 µM: 1.08
[1]; [4]
  fold induction at 10 µM: 63.9
[1]
  Assay 6: H2O2-resistant, at 10 uM, human dermal fibroblast (HDF) primary cells: YES
NRF2; 10 uM
  NRF2-dependency for H2O2-resistance, at 10 uM - with H2O2, 1st experiment: 1st, YES;
  NRF2-dependency for H2O2-resistance, at 10 uM - with H2O2, 2nd experiment: 2nd, YES.
  NRF2-dependency for H2O2-resistance, at 10 uM (experiment 3) - with & without H2O2: YES
  NRF2-dependency for H2O2-resistance (experiment 3): YES
  NRF2-dependency for H2O2-resistance, 1st experiment: YES;
  NRF2-dependency for H2O2-resistance, 2nd experiment: YES.
  Assay 17: NRF2-dependency for H2O2-resistance: YES
NRF2; 3 of 3 experiments
  Reduction of H2O2-resistance capacity upon NRF2 knockdown, on average: ~90%
NRF2
  NRF2-dependency of H2O2-resistance (NRF2 siRNA knockdown): significantly attenuate
NRF2; score
  J = NRF2-dependency for H2O2-resistance: 1
NRF2; summary score
  J = NRF2-dependency for H2O2-resistance: 1
WI-38 cells
  CdCl2-resistant: YES
  H2O2- & CdCl2-resistant: YES
  Assay 4: H2O2- & Cd-resistant: YES
  Assay 2: Cadmium-resistant: YES
WI-38 cells; [5]
  fold induction at 10 µM: 6.37
WI-38 cells; [6]
  fold induction at 10 µM: 4
WI-38 cells; WI-38 cells, 10 μM
  CdCl2-resistant: YES
WI-38 cells; [8]
  H2O2- & CdCl2-resistant: YES
WI-38 cells; [7]
  A = Cadmium resistant: 1
WI-38 cells; summary score
  A = Cadmium resistant: 1
  C = H2O2- & Cd-resistant: 1

## COc1ccc(/C=C2\SC(=N)N(c3nccs3)C2=O)cc1 [O21]
FOXO3; 10 uM
  FOXO3-dependency for H2O2-resistance, at 10 uM (experiment 3) - with & without H2O2: YES
FOXO3; [2]
  FOXO3-dependency for H2O2-resistance (experiment 3): YES
FOXO3; score
  I = FOXO3-dependency for H2O2-resistance: 0
FOXO3; summary score
  I = FOXO3-dependency for H2O2-resistance: 0
[1]; [3]
  fold induction at 10 µM: 140
[1]; [4]
  fold induction at 10 µM: 25.5
[1]
  Assay 6: H2O2-resistant, at 10 uM, human dermal fibroblast (HDF) primary cells: YES
NRF2; 10 uM
  NRF2-dependency for H2O2-resistance, at 10 uM - with H2O2, 1st experiment: 1st, partial;
  NRF2-dependency for H2O2-resistance, at 10 uM (experiment 3) - with & without H2O2: YES
  NRF2-dependency for H2O2-resistance (experiment 3): YES
  NRF2-dependency for H2O2-resistance, 1st experiment: partial;
  Assay 17: NRF2-dependency for H2O2-resistance: YES
NRF2; score
  J = NRF2-dependency for H2O2-resistance: 1
NRF2; summary score
  J = NRF2-dependency for H2O2-resistance: 1
WI-38 cells; [5]
  fold induction at 10 µM: 0.03
WI-38 cells; [6]
  fold induction at 10 µM: 0.04
WI-38 cells; [7]
  A = Cadmium resistant: 0
WI-38 cells; summary score
  A = Cadmium resistant: 0
  C = H2O2- & Cd-resistant: 0

## CC(C)(C)c1ccc(OCC(=O)Nc2ccc3c4c(cccc24)C(=O)NC3=O)cc1 [O22]
FOXO3; score
  I = FOXO3-dependency for H2O2-resistance: 0
FOXO3; summary score
  I = FOXO3-dependency for H2O2-resistance: 0
[1]; [3]
  fold induction at 10 µM: 15.3
[1]; [4]
  fold induction at 10 µM: 49.6
[1]
  Assay 6: H2O2-resistant, at 10 uM, human dermal fibroblast (HDF) primary cells: YES
NRF2; 10 uM
  NRF2-dependency for H2O2-resistance, at 10 uM - with H2O2, 1st experiment: 1st, partial;
  NRF2-dependency for H2O2-resistance, at 10 uM - with H2O2, 2nd experiment: 2nd, partial.
  NRF2-dependency for H2O2-resistance, 1st experiment: partial;
  NRF2-dependency for H2O2-resistance, 2nd experiment: partial.
  Assay 17: NRF2-dependency for H2O2-resistance: YES
NRF2
  NRF2-dependency of H2O2-resistance (NRF2 siRNA knockdown): significantly attenuate
NRF2; score
  J = NRF2-dependency for H2O2-resistance: 1
NRF2; summary score
  J = NRF2-dependency for H2O2-resistance: 1
WI-38 cells
  CdCl2-resistant: YES
  H2O2- & CdCl2-resistant: YES
  Assay 4: H2O2- & Cd-resistant: YES
  Assay 2: Cadmium-resistant: YES
WI-38 cells; [5]
  fold induction at 10 µM: 5.61
WI-38 cells; [6]
  fold induction at 10 µM: 14.7
WI-38 cells; WI-38 cells, 10 μM
  CdCl2-resistant: YES
WI-38 cells; [8]
  H2O2- & CdCl2-resistant: YES
WI-38 cells; [7]
  A = Cadmium resistant: 1
WI-38 cells; summary score
  A = Cadmium resistant: 1
  C = H2O2- & Cd-resistant: 1

## COc1cccc(/C=C2\CN(C)C/C(=C\c3cccc(OC)c3OC)C2=O)c1OC [O23]
FOXO3; 10 uM
  FOXO3-dependency for H2O2-resistance, at 10 uM (experiment 3) - with & without H2O2: YES
FOXO3; [2]
  FOXO3-dependency for H2O2-resistance (experiment 3): YES
FOXO3; score
  I = FOXO3-dependency for H2O2-resistance: 0
FOXO3; summary score
  I = FOXO3-dependency for H2O2-resistance: 0
[1]; [3]
  fold induction at 10 µM: 1.68
[1]; [4]
  fold induction at 10 µM: 52.4
[1]
  Assay 6: H2O2-resistant, at 10 uM, human dermal fibroblast (HDF) primary cells: YES
NRF2
  Survival of NRF2 siRNA-transfected cells in the absence of H2O2: could reduce the survival
  NRF2-dependency of H2O2-resistance (NRF2 siRNA knockdown): significantly attenuate
NRF2; 10 uM
  NRF2-dependency for H2O2-resistance, at 10 uM - with H2O2, 1st experiment: 1st, YES;
  NRF2-dependency for H2O2-resistance, at 10 uM - with H2O2, 2nd experiment: 2nd, YES.
  NRF2-dependency for H2O2-resistance, 1st experiment: YES;
  NRF2-dependency for H2O2-resistance, 2nd experiment: YES.
  Assay 17: NRF2-dependency for H2O2-resistance: YES
NRF2; human, 24 h, 10 uM
  viability of non-stressed cells, reduced by: by 40%)
NRF2; score
  J = NRF2-dependency for H2O2-resistance: 1
NRF2; summary score
  J = NRF2-dependency for H2O2-resistance: 1
WI-38 cells; [5]
  fold induction at 10 µM: 0.69
WI-38 cells; [6]
  fold induction at 10 µM: 0.64
WI-38 cells
  Assay 4: H2O2- & Cd-resistant: YES
  Assay 2: Cadmium-resistant: YES
WI-38 cells; [7]
  A = Cadmium resistant: 0
WI-38 cells; summary score
  A = Cadmium resistant: 1
  C = H2O2- & Cd-resistant: 1

## Oc1ccccc1-c1noc(-c2ccccc2O)n1 [O27]
FOXO3; score
  I = FOXO3-dependency for H2O2-resistance: 0
FOXO3; summary score
  I = FOXO3-dependency for H2O2-resistance: 0
[1]
  Assay 6: H2O2-resistant, at 10 uM, human dermal fibroblast (HDF) primary cells: YES
NRF2; score
  J = NRF2-dependency for H2O2-resistance: 0
NRF2; summary score
  J = NRF2-dependency for H2O2-resistance: 0
WI-38 cells
  CdCl2-resistant: YES
  H2O2- & CdCl2-resistant: YES
  Assay 4: H2O2- & Cd-resistant: YES
  Assay 2: Cadmium-resistant: YES
WI-38 cells; WI-38 cells, 10 μM
  CdCl2-resistant: YES
WI-38 cells; [8]
  H2O2- & CdCl2-resistant: YES
WI-38 cells; [7]
  A = Cadmium resistant: 1
WI-38 cells; summary score
  A = Cadmium resistant: 1
  C = H2O2- & Cd-resistant: 1
